The values below come from BindingDB's records for doi:10.1016/j.bmcl.2009.09.017 (Pfizer, 2009).

A short description of this assay: Antagonist activity at P2Y12 receptor in human platelet rich plasma assessed as inhibition of ADP-induced platelet aggregation by light transmission aggregometry.

Consider `CCCCOC(=O)N1CCN(C(=O)[C@H](CCC(=O)O)NC(=O)c2cc(OC3CCN(C(C)C)CC3)nc(-c3ccccc3)n2)CC1` [(S)-5-(4-(butoxycarbonyl)piperazin-1-yl)-4-(6-(1-isopropylpiperidin-4-yloxy)-2-phenylpyrimidine-4-carboxamido)-5-oxopentanoic acid], for which the IC50 (as a rule, the midpoint of a concentration-inhibition curve) was determined as 1800 nM.
Regarding `CCCCCOC(=O)N1CCN(C(=O)[C@H](CCC(=O)O)NC(=O)c2cc(N3CCN(CCOC)CC3)nc(-c3ccccc3)n2)CC1` [(S)-4-(6-(4-(2-methoxyethyl)piperazin-1-yl)-2-phenylpyrimidine-4-carboxamido)-5-oxo-5-(4-(pentyloxycarbonyl)piperazin-1-yl)pentanoic acid], the IC50 is 2200 nM.
To `CCCCCOC(=O)N1CCN(C(=O)[C@H](CCC(=O)O)NC(=O)c2cc(N3CCNCC3)nc(-c3ccccc3)n2)CC1` [(S)-5-oxo-5-(4-(pentyloxycarbonyl)piperazin-1-yl)-4-(2-phenyl-6-(piperazin-1-yl)pyrimidine-4-carboxamido)pentanoic acid] belongs 1300 nM; to `CCCCCOC(=O)N1CCN(C(=O)[C@H](CCC(=O)O)NC(=O)c2cc(N3CCC(C(N)=O)CC3)nc(-c3ccccc3)n2)CC1` [(S)-4-(6-(4-carbamoylpiperidin-1-yl)-2-phenylpyrimidine-4-carboxamido)-5-oxo-5-(4-(pentyloxycarbonyl)piperazin-1-yl)pentanoic acid], 690 nM; to `CCCCCOC(=O)N1CCN(C(=O)[C@H](CCC(=O)O)NC(=O)c2cc(N3CCC(CC(=O)NCC)CC3)nc(-c3ccccc3)n2)CC1` [(S)-4-(6-(4-(2-(ethylamino)-2-oxoethyl)piperidin-1-yl)-2-phenylpyrimidine-4-carboxamido)-5-oxo-5-(4-(pentyloxycarbonyl)piperazin-1-yl)pentanoic acid], 1600 nM.
Take `CCCCCOC(=O)N1CCN(C(=O)[C@H](CCC(=O)O)NC(=O)c2nc(-c3ccccc3)cc(N3CCN(C(C)=O)CC3)n2)CC1` [(S)-4-(4-(4-acetylpiperazin-1-yl)-6-phenylpyrimidine-2-carboxamido)-5-oxo-5-(4-(pentyloxycarbonyl)piperazin-1-yl)pentanoic acid]: the half-maximal inhibitory concentration (IC50) is 6500 nM.
In the case of `CCCCCOC(=O)N1CCN(C(=O)[C@H](CCC(=O)O)NC(=O)c2cc(N3CCC(C(=O)N4CCCC4)CC3)nc(-c3ccccc3)n2)CC1` [(S)-5-oxo-5-(4-(pentyloxycarbonyl)piperazin-1-yl)-4-(2-phenyl-6-(4-(pyrrolidine-1-carbonyl)piperidin-1-yl)pyrimidine-4-carboxamido)pentanoic acid], the IC50 came to 270 nM.
For the compound `CCCCCOC(=O)N1CCN(C(=O)[C@H](CCC(=O)O)NC(=O)c2nc(OCC3CCN(C)CC3)cc(-c3ccccc3)n2)CC1` [(S)-4-(4-((1-methylpiperidin-4-yl)methoxy)-6-phenylpyrimidine-2-carboxamido)-5-oxo-5-(4-(pentyloxycarbonyl)piperazin-1-yl)pentanoic acid], the IC50 turned out to be 3800 nM.
Turning to `CCCCCOC(=O)N1CCN(C(=O)[C@H](CCC(=O)O)NC(=O)c2cc(N3CCC(CC(=O)N4CCCC4)CC3)nc(-c3ccccc3)n2)CC1` [(S)-5-oxo-4-(6-(4-(2-oxo-2-(pyrrolidin-1-yl)ethyl)piperidin-1-yl)-2-phenylpyrimidine-4-carboxamido)-5-(4-(pentyloxycarbonyl)piperazin-1-yl)pentanoic acid], the IC50 amounted to 1500 nM.
With `CCCCCOC(=O)N1CCN(C(=O)[C@H](CCC(=O)O)NC(=O)c2cc(N3CCN(C(N)=O)CC3)nc(-c3ccccc3)n2)CC1` [(S)-4-(6-(4-carbamoylpiperazin-1-yl)-2-phenylpyrimidine-4-carboxamido)-5-oxo-5-(4-(pentyloxycarbonyl)piperazin-1-yl)pentanoic acid], the IC50 came to 940 nM.
Regarding `CCCCOC(=O)N1CCN(C(=O)[C@H](CCC(=O)O)NC(=O)c2cc(N3CCC(C(=O)N4CCCC4)CC3)nc(-c3ccccc3)n2)CC1` [(S)-5-(4-(butoxycarbonyl)piperazin-1-yl)-5-oxo-4-(2-phenyl-6-(4-(pyrrolidine-1-carbonyl)piperidin-1-yl)pyrimidine-4-carboxamido)pentanoic acid], the IC50 stood at 390 nM.
Under `CCCCCOC(=O)N1CCN(C(=O)[C@H](CCC(=O)O)NC(=O)c2nc(-c3ccccc3)cc(N3CCC(COC)CC3)n2)CC1` [(S)-4-(4-(4-(methoxymethyl)piperidin-1-yl)-6-phenylpyrimidine-2-carboxamido)-5-oxo-5-(4-(pentyloxycarbonyl)piperazin-1-yl)pentanoic acid] stands 6800 nM.
Consider `CCCCCOC(=O)N1CCN(C(=O)[C@H](CCC(=O)O)NC(=O)c2cc(N3CCC(OCCOC)CC3)nc(-c3ccccc3)n2)CC1` [(S)-4-(6-(4-(2-methoxyethoxy)piperidin-1-yl)-2-phenylpyrimidine-4-carboxamido)-5-oxo-5-(4-(pentyloxycarbonyl)piperazin-1-yl)pentanoic acid], for which the IC50 stood at 1400 nM.
`CCCCOC(=O)N1CCN(C(=O)[C@H](CCC(=O)O)NC(=O)c2cc(OCC3CCNCC3)nc(-c3ccccc3)n2)CC1` [(S)-5-(4-(butoxycarbonyl)piperazin-1-yl)-5-oxo-4-(2-phenyl-6-(piperidin-4-ylmethoxy)pyrimidine-4-carboxamido)pentanoic acid]: the IC50 was found to be 1200 nM.
`CCCCCOC(=O)N1CCN(C(=O)[C@H](CCC(=O)O)NC(=O)c2nc(-c3ccccc3)cc(N3CCC(C(N)=O)CC3)n2)CC1` [(S)-4-(4-(4-carbamoylpiperidin-1-yl)-6-phenylpyrimidine-2-carboxamido)-5-oxo-5-(4-(pentyloxycarbonyl)piperazin-1-yl)pentanoic acid]: the IC50 amounted to 2300 nM.
Regarding `CCCCOC(=O)N1CCN(C(=O)[C@H](CCC(=O)O)NC(=O)c2cc(N3CCC(CCOC)CC3)nc(-c3ccccc3)n2)CC1` [(S)-5-(4-(butoxycarbonyl)piperazin-1-yl)-4-(6-(4-(2-methoxyethyl)piperidin-1-yl)-2-phenylpyrimidine-4-carboxamido)-5-oxopentanoic acid], the IC50 amounted to 1200 nM.
Under `CCCCCOC(=O)N1CCN(C(=O)[C@H](CCC(=O)O)NC(=O)c2nc(-c3ccccc3)cc(N3CCC(N)CC3)n2)CC1` [(S)-4-(4-(4-aminopiperidin-1-yl)-6-phenylpyrimidine-2-carboxamido)-5-oxo-5-(4-(pentyloxycarbonyl)piperazin-1-yl)pentanoic acid] stands 2700 nM; under `CCCCCOC(=O)N1CCN(C(=O)[C@H](CCC(=O)O)NC(=O)c2cc(N3CCC(N4CCOCC4)CC3)nc(-c3ccccc3)n2)CC1` [(S)-4-(6-(4-morpholinopiperidin-1-yl)-2-phenylpyrimidine-4-carboxamido)-5-oxo-5-(4-(pentyloxycarbonyl)piperazin-1-yl)pentanoic acid], 780 nM.
Regarding `CCCCCOC(=O)N1CCN(C(=O)[C@H](CCC(=O)O)NC(=O)c2cc(N3CCC(CN4CCCC4)CC3)nc(-c3ccccc3)n2)CC1` [(S)-5-oxo-5-(4-(pentyloxycarbonyl)piperazin-1-yl)-4-(2-phenyl-6-(4-(pyrrolidin-1-ylmethyl)piperidin-1-yl)pyrimidine-4-carboxamido)pentanoic acid], the IC50 was determined as 560 nM.
To `CCCCCOC(=O)N1CCN(C(=O)[C@H](CCC(=O)O)NC(=O)c2cc(N3CCN(C)CC3)nc(-c3ccccc3)n2)CC1` [(S)-4-(6-(4-methylpiperazin-1-yl)-2-phenylpyrimidine-4-carboxamido)-5-oxo-5-(4-(pentyloxycarbonyl)piperazin-1-yl)pentanoic acid] belongs 1400 nM; to `CCCCCOC(=O)N1CCN(C(=O)[C@H](CCC(=O)O)NC(=O)c2nc(OCCN(CC)CC)cc(-c3ccccc3)n2)CC1` [(S)-4-(4-(2-(diethylamino)ethoxy)-6-phenylpyrimidine-2-carboxamido)-5-oxo-5-(4-(pentyloxycarbonyl)piperazin-1-yl)pentanoic acid], more than 10000 nM; to `CCCCCOC(=O)N1CCN(C(=O)[C@H](CCC(=O)O)NC(=O)c2nc(-c3ccccc3)cc(N3CCN(C(=O)N(C)C)CC3)n2)CC1` [(S)-4-(4-(4-(dimethylcarbamoyl)piperazin-1-yl)-6-phenylpyrimidine-2-carboxamido)-5-oxo-5-(4-(pentyloxycarbonyl)piperazin-1-yl)pentanoic acid], more than 10000 nM.
As for `CCCCCOC(=O)N1CCN(C(=O)[C@H](CCC(=O)O)NC(=O)c2cc(SCC(F)(F)F)nc(-c3ccccc3)n2)CC1` [(S)-5-oxo-5-(4-(pentyloxycarbonyl)piperazin-1-yl)-4-(2-phenyl-6-(2,2,2-trifluoroethylthio)pyrimidine-4-carboxamido)pentanoic acid], the IC50 was more than 10000 nM.
To `CCCCCOC(=O)N1CCN(C(=O)[C@H](CCC(=O)O)NC(=O)c2cc(OCCOC)nc(-c3ccccc3)n2)CC1` [(S)-4-(6-(2-methoxyethoxy)-2-phenylpyrimidine-4-carboxamido)-5-oxo-5-(4-(pentyloxycarbonyl)piperazin-1-yl)pentanoic acid] belongs 7900 nM; to `CCCCCOC(=O)N1CCN(C(=O)[C@H](CCC(=O)O)NC(=O)c2nc(-c3ccccc3)cc(N3CCC(CCOC)CC3)n2)CC1` [(S)-4-(4-(4-(2-methoxyethyl)piperidin-1-yl)-6-phenylpyrimidine-2-carboxamido)-5-oxo-5-(4-(pentyloxycarbonyl)piperazin-1-yl)pentanoic acid], more than 10000 nM.
Under `CCCCCOC(=O)N1CCN(C(=O)[C@H](CCC(=O)O)NC(=O)c2cc(N3CCN(CC(=O)N4CCCC4)CC3)nc(-c3ccccc3)n2)CC1` [(S)-5-oxo-4-(6-(4-(2-oxo-2-(pyrrolidin-1-yl)ethyl)piperazin-1-yl)-2-phenylpyrimidine-4-carboxamido)-5-(4-(pentyloxycarbonyl)piperazin-1-yl)pentanoic acid] stands 1100 nM; under `CCCCCOC(=O)N1CCN(C(=O)[C@H](CCC(=O)O)NC(=O)c2nc(NCCCN(C)C)cc(-c3ccccc3)n2)CC1` [(S)-4-(4-(3-(dimethylamino)propylamino)-6-phenylpyrimidine-2-carboxamido)-5-oxo-5-(4-(pentyloxycarbonyl)piperazin-1-yl)pentanoic acid], more than 10000 nM.
